Entries after “also recorded” stand apart in the source; their conditions may differ.
What was measured:
[1] = system: human skin; test: UV-induced erythema (skin reddening) of human skin after topical pretreatment, chromameter; format: in vivo; details: for protection against UV-induced erythema / reduction in erythema: 5% ASA or 3.5% vit. C applied 16 hours prior to exposure; for reduction in erythema: vs untreated (vehicle-only) skin; for inhibition of UV-induced erythema: 2 MED, 20% NAC or 5% FDO pretreatment; for prevention of UV-induced erythema: 5% topical, applied about seven hours prior to UV exposure, vs vehicle-treated skin
Description: (§1) In the following examples, four F36T12 ERE-VHO UV bulbs were used to irradiate human skin. At all times, a Kodocel TA401/407 filter was mounted 4 cm in front of the bulbs to remove UVC radiation (<290 nm). Radiation intensity was monitored using an IL443 phototherapy radiometer and an SED240/UVB/W photodetector (International Light, Newbury, Mass.). Spectroradiometry was performed using an Optronic Labroatories OL 754 system. Total irradiance (290-800 nm) at about 43 cm (17 in.) from the source of four bulbs was about 1.5 mJ/cm^2·s (1.49×10^−3 W/cm^2). The radiation output from this bulb was determined by spectroradiometry to provide about 47% UVB and about 27% UVA (composed of about 9% UVA1 (340-400 nm) and about 18% UVA2 (320-340 nm)), the remainder being visible and IR radiation. An exposure of about 160 seconds under this set of four bulbs is equivalent to an exposure of one MED. Accordingly, when compared with natural sunlight which has 0.5% UVB and 6.5% UVA, it can be seen that the set of four bulbs used in these experiments provides far less UVA radiation than would exposure to the sun of an equivalent amount of UVB.
(§2) In the following examples, a “standard vechicle” of 30% PEG (polyethylene glycol) in 70% ethanol (with 0.05% BHT as preservative) was used. […] MMP activities were measured by zymography.
Chromameter: erythema (skin reddening) was determined 24 h post-exposure using a commercially available Minolta chromameter (chromameter CR200, model 94401085).

[2] = system: type I collagenase; test: Type I collagenase activity/level in biopsies of UV-exposed human skin; format: in vivo; details: for collagenase activity after UV exposure: 5% ASA applied 16 hours prior to exposure; for protection against UV-induced type I collagenase activity: 2 MED, 20% NAC or 5% FDO pretreatment; for inhibition of UV-induced increase in collagenase activity: 20% NAC; for inhibition of UV-induced collagenase activity: about 2 MED, 5% topical, about seven hours prior to exposure
Description: as §1, §2
Matrix metalloproteinase assays. Tissue pieces were frozen in liquid nitrogen immediately after biopsy, homogenized in 20 mM Tris HCl (pH 7.6) plus 5 mM CaCl2, and centrifuged at 3000×g for 10 minutes to remove particulates. Ability to release soluble radioactive fragments from 3H-labeled fibrillar Type I collagen (described by Fisher, G. J., et al., Nature, 379, 335-339 (1996) and Hu, C-L, et al., Analytic. Biochem, 88, 638-643 (1978)) was used as a measure of collagenolytic activity. […] Subsequently, 0.2 μCi of collagen substrate (NEN-DuPont, Boston, Mass.) was incubated for 24 hours with 50 μl of tissue extract. At the end of the 24-hour incubation period, the samples were centrifuged at 12,000×g for 10 minutes to pellet the intact protein. Radioactivity remaining in the supernatant fluid was then measured and from this, the percentage of substrate hydrolzyed was determined.

[3] = system: 92 KDa gelatinase; test: 92 kDa gelatinase activity/level in biopsies of UV-exposed human skin (gelatin zymography); format: in vivo; details: for inhibition of UV-induced increase in 92 KDa gelatinase activity: 1 MED, 20% NAC; for inhibition of UV-induced 92 KDa gelatinase activity: 5% topical, about seven hours prior to exposure
Description: as §1, §2
Gelatin zymography (Varani et al., op. cit.) was used to assess MMP-2 (72-kD gelatinase; gelatinase A) and MMP9 (92-kD gelatinase; gelatinase B) activity. Tissue extracts were electrophoresed in an 8.5% SDS-polyacrylamide gel containing 1 mg/ml of gelatin. After electrophoresis, the SDS was removed by three sequential washes in 1% Triton X-100. The first two washes were for 20 minutes each and the last was overnight. Quantitation of hydrolysis zone width was done by laser densitometry.

[4] = UV absorbance characteristics of UVA blocker over UVA1, UVA2 and UVB wavelengths; format: physicochemical
Description: We investigated the effect of pretreatment of skin with a known UVA blocker on both erythema and MMP activity after exposure to 2 MEDs of UV radiation. In particular, we used PARSOL® 1789 (also known as PARSOL A) brand of 4-t-butyl-4′-methoxydibenzoylmethane, which is described in U.S. Pat. No. 4,387,089 (the disclosure of which is incorporated herein by reference). (PARSOL MCX and PARSOL MOX are trademarks for 2-ethylhexyl p-methoxycinnamate, a UVB blocker commonly used in commercial sunscreen, and disclosed in U.S. Pat. No. 4,713,473, the disclosure of which is incorporated herein by reference). The absorbance characteristics of PARSOL® 1789 over the UVA1, UVA2, and UVB wavelengths is shown as the dotted line in FIG. 8A.

[5] = about 2 MED, 5% PARSOL 1789 pretreatment

CC(=O)Oc1ccccc1C(=O)O [ASA, acetyl salicylic acid]
protection against UV-induced erythema ([1]; 1 MED): provided protection against erythema
protection against UV-induced erythema ([1]; 1 MED, listed as aspirin): reduced the UV-induced erythema
reduction in erythema ([1]; 1 MED): about 30%
collagenase activity after UV exposure ([2]; 1 MED, vs untreated skin): not effective at preventing elevated collagenase activity
collagenase activity after UV exposure ([2]; 1 MED, vs untreated skin, listed as aspirin): greater collagenase activity than untreated skin

O=C1O[C@H]([C@@H](O)CO)C(O)=C1O [vitamin C, ascorbic acid]
protection against UV-induced erythema ([1]; 1 MED): provided protection against erythema; also recorded: reduced the UV-induced erythema
reduction in erythema ([1]; 1 MED): about 30%
reduction in collagenase activity ([2]; 1 MED, 3.5% vit. C applied 16 hours prior to exposure, vs untreated skin): ~25%

O/N=C(/C(=N/O)c1ccco1)c1ccco1 [FDO, 2-furildioxime]
inhibition of UV-induced erythema [1]: effective at preventing erythema; also recorded: completely inhibited erythema
protection against UV-induced type I collagenase activity [2]: some protection against MMP induction

CC(=O)N[C@@H](CS)C(=O)O [NAC, N-acetyl cysteine]
inhibition of UV-induced increase in 92 KDa gelatinase activity ([3]; four hour pretreatment): ineffective
inhibition of UV-induced increase in 92 KDa gelatinase activity ([3]; seven hour pretreatment): provided an inhibitory effect
anti-redness effect on UV-exposed skin ([1]; 1 MED, 20% NAC, four or seven hours prior to exposure): no anti-redness effect
inhibition of UV-induced erythema [1]: no effect against erythema
inhibition of UV-induced increase in collagenase activity ([2]; 1 MED, four hour pretreatment): ineffective
inhibition of UV-induced increase in collagenase activity ([2]; 1 MED, seven hour pretreatment): provided an inhibitory effect
protection against UV-induced type I collagenase activity [2]: effective at preventing increased MMP activity; also recorded: significant protection against collagenase activity

CC1=C(/C=C/C(C)=C/C=C/C(C)=C/CO)C(C)(C)CCC1 [retinol]
prevention of UV-induced elevation in type I collagenase activity ([2]; suberythemal 0.5 MED, 0.1% retinoic acid or 1% retinol pretreatment): about as effective as retinoic acid

COc1ccc(C(=O)CC(=O)c2ccc(C(C)(C)C)cc2)cc1 [PARSOL® 1789, 4-t-butyl-4′-methoxydibenzoylmethane]
gelatinase activity vs UV-exposed vehicle-treated skin [3, 5]: significantly reduced
gelatinase activity vs vehicle-treated unexposed skin [3, 5]: not significantly different from vehicle-treated unexposed skin
blocking of UVA1 radiation (absorbance) ([4]; UVA1 wavelengths): somewhat effective at blocking UVA1 radiation
blocking of UVA2 radiation (absorbance) ([4]; UVA2 wavelengths): especially useful at blocking UVA2 radiation
protection from UV-induced erythema (sunburn) [1, 5]: does provide some protection

COc1ccc2[nH]cc(CCNC(C)=O)c2c1 [melatonin]
inhibition of UV-induced 92 KDa gelatinase activity ([3]; about 2 MED): neither melatonin nor vitamin E (both with pretreatment) prevented induction of MMPs; also recorded: did not function to inhibit the increased MMP activity
prevention of UV-induced erythema ([1]; about 2 MED): significantly reduced the erythema
prevention of UV-induced erythema ([1]; about 2 MED, listed as Melatonin): does appear to prevent erythema
inhibition of UV-induced collagenase activity [2]: neither melatonin nor vitamin E (both with pretreatment) prevented induction of MMPs; also recorded: did not function to inhibit the increased MMP activity

vitamin E
inhibition of UV-induced 92 KDa gelatinase activity ([3]; about 2 MED): neither melatonin nor vitamin E (both with pretreatment) prevented induction of MMPs; also recorded: did not function to inhibit the increased MMP activity
prevention of UV-induced erythema ([1]; about 2 MED): significantly reduced the erythema
prevention of UV-induced erythema ([1]; about 2 MED, listed as Vitamin E): slightly worse but still very effective at preventing erythema
inhibition of UV-induced collagenase activity [2]: neither melatonin nor vitamin E (both with pretreatment) prevented induction of MMPs; also recorded: did not function to inhibit the increased MMP activity
